# Columns and labels:
# Acetylcholinesterase [1] = target: T1, Acetylcholinesterase (Homo sapiens, UniProt P22303); test: Inhibition of Acetylcholinesterase from human red blood cells
# Acetylcholinesterase [2] = target: T2, Acetylcholinesterase (Bos taurus, UniProt P23795); test: Inhibition of Acetylcholinesterase activity of calf forebrain
# T2 sequence (P23795 whole entry): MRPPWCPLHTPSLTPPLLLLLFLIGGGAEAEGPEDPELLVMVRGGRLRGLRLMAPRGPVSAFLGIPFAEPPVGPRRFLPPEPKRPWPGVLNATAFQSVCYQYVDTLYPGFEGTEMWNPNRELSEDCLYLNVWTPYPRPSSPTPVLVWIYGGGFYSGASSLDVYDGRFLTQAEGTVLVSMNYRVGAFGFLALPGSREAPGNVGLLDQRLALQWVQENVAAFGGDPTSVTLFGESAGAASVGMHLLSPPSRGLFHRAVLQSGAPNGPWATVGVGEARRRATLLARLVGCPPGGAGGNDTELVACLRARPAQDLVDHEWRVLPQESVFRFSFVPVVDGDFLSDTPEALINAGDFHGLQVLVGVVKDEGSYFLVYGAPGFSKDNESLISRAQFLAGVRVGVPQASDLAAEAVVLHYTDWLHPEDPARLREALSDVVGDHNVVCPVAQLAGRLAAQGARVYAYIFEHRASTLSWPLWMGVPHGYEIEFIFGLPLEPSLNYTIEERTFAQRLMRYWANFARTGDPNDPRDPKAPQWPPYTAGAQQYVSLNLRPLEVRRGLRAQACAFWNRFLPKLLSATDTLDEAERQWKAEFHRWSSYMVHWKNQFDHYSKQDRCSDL
# Acetylcholinesterase [3] = target: T2, Acetylcholinesterase; test: Binding affinity against Acetylcholinesterase of purified calf forebrain (CFB)
# Acetylcholinesterase [4] = target: T1, Acetylcholinesterase; test: Binding affinity against Acetylcholinesterase of human RBC
# Acetylcholinesterase [5] = target: T2, Acetylcholinesterase; test: In vitro inhibition of Acetylcholinesterase activity from calf fore brain was evaluated using 1 mM of ATC as substrate; NI=Not inhibitory
# Acetylcholinesterase [6] = target: T1, Acetylcholinesterase; test: In vitro inhibition of Acetylcholinesterase activity from human red blood cells was evaluated using 1 mM of ATC as substrate; NI=Not inhibitory
# T1 sequence (P22303 whole entry): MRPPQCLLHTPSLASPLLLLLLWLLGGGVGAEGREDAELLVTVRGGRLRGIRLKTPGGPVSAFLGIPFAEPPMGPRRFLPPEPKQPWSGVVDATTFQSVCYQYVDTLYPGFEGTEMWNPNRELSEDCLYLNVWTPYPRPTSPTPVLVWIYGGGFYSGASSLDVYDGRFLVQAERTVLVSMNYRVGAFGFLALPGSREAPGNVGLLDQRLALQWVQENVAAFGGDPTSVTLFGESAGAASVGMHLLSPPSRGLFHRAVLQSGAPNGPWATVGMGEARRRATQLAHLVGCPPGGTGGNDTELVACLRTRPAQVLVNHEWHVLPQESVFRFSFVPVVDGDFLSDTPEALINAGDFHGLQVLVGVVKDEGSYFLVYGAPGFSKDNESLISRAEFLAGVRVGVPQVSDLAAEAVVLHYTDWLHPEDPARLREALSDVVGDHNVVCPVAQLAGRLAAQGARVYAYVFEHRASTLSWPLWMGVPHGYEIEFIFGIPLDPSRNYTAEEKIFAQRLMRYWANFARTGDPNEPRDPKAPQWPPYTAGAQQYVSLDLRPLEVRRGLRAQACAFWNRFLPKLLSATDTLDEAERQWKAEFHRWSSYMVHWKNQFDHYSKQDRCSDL
Structure (SMILES),IC50 (Acetylcholinesterase [1]),IC50 (Acetylcholinesterase [2]),Ki (Acetylcholinesterase [3]),Ki (Acetylcholinesterase [4]),IC50 (Acetylcholinesterase [5]),IC50 (Acetylcholinesterase [6])
CCSC(=O)OCC[N+](C)(C)C,> 10000 µM,> 10000 µM,–,–,–,–
CCCCSC(=O)OCC[N+](C)(C)C,500 µM,100 µM,–,–,–,–
CCCCCCSC(=O)OCC[N+](C)(C)C,80 µM,20 µM,–,–,–,–
CCCCCCCSC(=O)OCC[N+](C)(C)C,50 µM,10 µM,10 µM,20 µM,–,–
CCc1ccc(SC(=O)OCC[N+](C)(C)C)cc1,500 µM,100 µM,–,–,–,–
CCCSC(=O)OCC[N+](C)(C)C,> 5000 µM,> 1000 µM,–,–,–,–
CCC(C)CSC(=O)OCC[N+](C)(C)C.[Cl-] (stereo not given),1000 µM,800 µM,–,–,–,–
CCc1ccccc1SC(=O)OCC[N+](C)(C)C.[Cl-],50 µM,10 µM,–,–,–,–
CCN(CC)CCNC(=O)c1ccc(N)cc1 [PROCAINAMIDE],1 µM,0.5 µM,1 µM,1 µM,–,–
CC(C)SC(=O)OCC[N+](C)(C)C.[Cl-],–,–,–,–,No inhibition,No inhibition
CC(C)(C)SC(=O)OCC[N+](C)(C)C.[Cl-],–,–,–,–,No inhibition,No inhibition
C[N+](C)(C)CCOC(=O)Sc1ccccc1.[Cl-],1000 µM,100 µM,–,–,–,–
CCC(C)(C)SC(=O)OCC[N+](C)(C)C.[Cl-],40 µM,10 µM,–,–,–,–
CC(C)CCSC(=O)OCC[N+](C)(C)C,50 µM,10 µM,–,–,–,–
CCCCCSC(=O)OCC[N+](C)(C)C,0.8 µM,1 µM,1 µM,–,–,–
